Results reported in patent US4032654A, “Water-soluble, liquid concentrates of S-methyl-[(methyl-carbamoyl)oxy]-thioacetimidate and methyl N', N'-dimethyl-N-[(methyl-carbamoyl)oxy]-1-thiooxamimidate” (priority 1975, dated 1977).
In brackets after ≈: the same amount, converted by molar mass. Where two headings read alike, the source gives them in different places.

Assays:
[1] = 80:20 wt acetone/H2O, -6° C.; for Solubility, both actives in solvent: Methomyl: with oxamyl
Protocol: Solubility of Methomyl and Oxamyl 80:20 Wt. Ratio Acetone:H2 O
Methomyl and oxamyl were dissolved in a solvent system consisting of 80 wt. % acetone and 20 wt. % water separately and in 1:1, 2:1 and 1:2.5 wt. ratios of methomyl and oxamyl. These solutions were equilibrated at -6° C. and were seeded with methomyl and/or oxamyl. They remained at -6° C. until solid-liquid equilibrium was assured. Liquid was removed from each sample at -6° C. and assayed for methomyl and oxamyl. Solids were also removed at -6° C., washed, dried and dissolved in methanol to yield a 10 wt. % solution which was evaluated by TLC for oxamyl and methomyl.

[2] = physchem; conditions: -6° C.
Protocol: Methomyl and oxamyl were added to various methanol:water solvent systems ranging from 100 wt. % CH3 OH to 30 wt. % CH3 OH:70 wt. % H2 O. […] The samples were equilibrated at -6° C. in a constant temperature freezer after which they were seeded with methomyl and oxamyl crystals to ensure crystallization of both materials. After crystal-liquid equilibrium was assured, liquid was removed at -6° C. and assayed for methomyl and oxamyl. Solids were also removed at -6° C., washed with hexane and dried. The solids were then dissolved in methanol to yield a 10 wt. % solution. This solution was evaluated by thin layer chromatography (TLC) to ensure the solids consisted of both methomyl and oxamyl.
Solubility of Methomyl and Oxamyl 1:2.5 wt. ratio in CH3 OH:H2 O at -6° C.
Example 3 was repeated by dissolving methomyl and oxamyl in a 1:2.5 weight ratio in the same solvent systems under the same conditions.

[3] = physchem
Protocol: Methomyl and oxamyl were added to various methanol:water solvent systems ranging from 100% CH3 OH to 40% CH3 OH:60% H2 O. The methomyl and oxamyl were dissolved separately or combined on a 1:1 weight ratio in the solvent systems at room temperature at a concentration exceeding the solubility limit at -6° C. Each sample was seeded with methomyl and/or oxamyl at -6° C. and allowed to crystallize until equilibrium was established. The supernatant liquid of each sample was assayed for methomyl and/or oxamyl by liquid chromatography.

[4] = 60% cyclohexanone, 10% methanol, 30% water, -6° C.; for Solubility, both actives in solvent: Methomyl: with oxamyl
Protocol: Methomyl and/or oxamyl were added to a solvent system consisting of 60% cyclohexanone, 10% methanol and 30% water at room temperature at a concentration higher than the solubility limit at -6° C. The methomyl and oxamyl were added together, at weight ratios of 2:1, 1:1 and 1:2.5. The solutions were cooled to -6° C. and seeded with methomyl and/or oxamyl to initiate crystallization. The solutions remained at -6° C. until equilibrium was assured. The supernatant liquid in each sample was analyzed for methomyl and oxamyl by liquid chromatography.

[5] = physchem; conditions: -6° C.; remark: listed apart in the source
Protocol: Solubility of Methomyl and Oxamyl (2:1 wt. ratio) in CH3 OH/H2 O at -6° C.
Methomyl and oxamyl were added to various methanol:water solvent systems ranging from 100 wt. % CH3 OH to 30 wt. % CH3 OH:70 wt. % H2 O. The methomyl and oxamyl were dissolved in a 2:1 weight ratio of 50 wt. % methomyl to 25 wt. % oxamyl in the solvent systems. The samples were equilibrated at -6° C. in a constant temperature freezer after which they were seeded with methomyl and oxamyl crystals to ensure crystallization of both materials. After crystal-liquid equilibrium was assured, liquid was removed at -6° C. and assayed for methomyl and oxamyl. Solids were also removed at -6° C., washed with hexane and dried. The solids were then dissolved in methanol to yield a 10 wt. % solution. This solution was evaluated by thin layer chromatography (TLC) to ensure the solids consisted of both methomyl and oxamyl.

[6] = 40/60 ch3oh/h2o, Methomyl alone in solvent, alone
[7] = 50/50 ch3oh/h2o, Methomyl alone in solvent, alone
[8] = 60/40 ch3oh/h2o, Methomyl alone in solvent, alone
[9] = 70/30 ch3oh/h2o, Methomyl alone in solvent, alone
[10] = 80/20 ch3oh/h2o, Methomyl alone in solvent, alone
[11] = 90/10 ch3oh/h2o, Methomyl alone in solvent, alone

In the case of `CNC(=O)ON=C(C)SC` [Methomyl], the “Solubility, Methomyl alone in solvent” value ([1]; alone) is reported as 41.4 gms/100 gms solvent, the “Solubility, both actives in solvent: Methomyl” value (“Solubility, both actives” below) ([1]; ratio 1:1) is reported as 67.0 gms/100 gms solvent and the “Solubility, both actives” value ([1]; ratio 1:2.5) is reported as 66.6 gms/100 gms solvent. For the same compound, the “Solubility, both actives” value ([1]; ratio 2:1) was 64.8 gms/100 gms solvent, the solubility ([2]; 30/70 ch3oh/h2o, both actives in solvent: Methomyl, with oxamyl, 1:2.5 wt., 30/70 CH3OH/H2O) was 156 mg/mL (≈ 962 mM) and the solubility [2, 6] was 62 mg/mL (≈ 382 mM). For the same compound, the solubility ([2]; 40/60 ch3oh/h2o, both actives in solvent: Methomyl, with oxamyl, 1:2.5 wt., 40/60 CH3OH/H2O) was 288 mg/mL (≈ 1780 mM), the solubility [2, 7] was 105 mg/mL (≈ 647 mM) and the solubility ([2]; 50/50 ch3oh/h2o, both actives in solvent: Methomyl, with oxamyl, 1:2.5 wt., 50/50 CH3OH/H2O) was 411 mg/mL (≈ 2530 mM). The solubility [2, 8] was 155 mg/mL (≈ 956 mM), the solubility ([2]; 60/40 ch3oh/h2o, both actives in solvent: Methomyl, with oxamyl, 1:2.5 wt., 60/40 CH3OH/H2O) was 440 mg/mL (≈ 2710 mM) and the solubility [2, 9] was 206 mg/mL (≈ 1270 mM). The solubility ([2]; 70/30 ch3oh/h2o, both actives in solvent: Methomyl, with oxamyl, 1:2.5 wt., 70/30 CH3OH/H2O) was 220 mg/mL (≈ 1360 mM), the solubility [2, 10] was 263 mg/mL (≈ 1620 mM) and the solubility ([2]; 80/20 ch3oh/h2o, both actives in solvent: Methomyl, with oxamyl, 1:2.5 wt., 80/20 CH3OH/H2O) was 573 mg/mL (≈ 3530 mM). For the same compound, the solubility [2, 11] was 299 mg/mL (≈ 1840 mM), the solubility ([2]; 90/10 ch3oh/h2o, both actives in solvent: Methomyl, with oxamyl, 1:2.5 wt., 90/10 CH3OH/H2O) was 699 mg/mL (≈ 4310 mM) and the “Solubility, Methomyl alone in solvent” value ([2]; alone, 100/0 CH3OH/H2O) was 30.7 gms/100 gms. The “Solubility, both actives” value ([2]; with oxamyl, 1:2.5 wt., 100/0 CH3OH/H2O) was 71.1 gms/100 gms, the solubility ([3]; 40/60 ch3oh/h2o, Methomyl alone in solvent, alone, -6° C.) was 62 mg/mL (≈ 382 mM) and the solubility ([3]; 40/60 ch3oh/h2o, both actives in solvent: Methomyl, with oxamyl 1:1 wt., 40/60 CH3OH/H2O, -6° C.) was 188 mg/mL (≈ 1160 mM). It also gave a solubility ([3]; 50/50 ch3oh/h2o, Methomyl alone in solvent, alone, -6° C.) of 105 mg/mL (≈ 647 mM), a solubility ([3]; 50/50 ch3oh/h2o, both actives in solvent: Methomyl, with oxamyl 1:1 wt., 50/50 CH3OH/H2O, -6° C.) of 237 mg/mL (≈ 1460 mM) and a solubility ([3]; 60/40 ch3oh/h2o, Methomyl alone in solvent, alone, -6° C.) of 155 mg/mL (≈ 956 mM). It also gave a solubility ([3]; 60/40 ch3oh/h2o, both actives in solvent: Methomyl, with oxamyl 1:1 wt., 60/40 CH3OH/H2O, -6° C.) of 355 mg/mL (≈ 2190 mM), a solubility ([3]; 70/30 ch3oh/h2o, Methomyl alone in solvent, alone, -6° C.) of 208 mg/mL (≈ 1280 mM) and a solubility ([3]; 70/30 ch3oh/h2o, both actives in solvent: Methomyl, with oxamyl 1:1 wt., 70/30 CH3OH/H2O, -6° C.) of 438 mg/mL (≈ 2700 mM). It also gave a solubility ([3]; 80/20 ch3oh/h2o, Methomyl alone in solvent, alone, -6° C.) of 263 mg/mL (≈ 1620 mM), a solubility ([3]; 80/20 ch3oh/h2o, both actives in solvent: Methomyl, with oxamyl 1:1 wt., 80/20 CH3OH/H2O, -6° C.) of 581 mg/mL (≈ 3580 mM) and a solubility ([3]; 90/10 ch3oh/h2o, Methomyl alone in solvent, alone, -6° C.) of 299 mg/mL (≈ 1840 mM). For the same compound, the solubility ([3]; 90/10 ch3oh/h2o, both actives in solvent: Methomyl, with oxamyl 1:1 wt., 90/10 CH3OH/H2O, -6° C.) was 664 mg/mL (≈ 4090 mM), the “Solubility, Methomyl alone in solvent” value ([3]; alone, 100/0 CH3OH/H2O, -6° C.) was 30.7 gms/100 gms and the “Solubility when dissolved together in the solvents taught” value ([3]; summary of Examples 2-7) was “increases in solubility occur”. The “Solubility, both actives” value ([3]; with oxamyl 1:1 wt., 100/0 CH3OH/H2O, -6° C.) was 63.9 gms/100 gms, the “Solubility, Methomyl alone in solvent” value ([4]; alone) was 29.5 gms/100 gms solvent and the “Solubility, both actives” value ([4]; ratio 1:1) was 46.2 gms/100 gms solvent. For the same compound, the “Solubility, both actives” value ([4]; ratio 1:2.5) was 66.6 gms/100 gms solvent, the “Solubility, both actives” value ([4]; ratio 2:1) was 64.8 gms/100 gms solvent and the solubility ([5]; 30/70 ch3oh/h2o, both actives in solvent: Methomyl, with oxamyl, 2:1 wt., 30/70 CH3OH/H2O) was 241 mg/mL (≈ 1490 mM). For the same compound, the solubility [5, 6] was 62 mg/mL (≈ 382 mM), the solubility ([5]; 40/60 ch3oh/h2o, both actives in solvent: Methomyl, with oxamyl, 2:1 wt., 40/60 CH3OH/H2O) was 422 mg/mL (≈ 2600 mM) and the solubility [5, 7] was 105 mg/mL (≈ 647 mM). The solubility ([5]; 50/50 ch3oh/h2o, both actives in solvent: Methomyl, with oxamyl, 2:1 wt., 50/50 CH3OH/H2O) was 461 mg/mL (≈ 2840 mM), the solubility [5, 8] was 155 mg/mL (≈ 956 mM) and the solubility ([5]; 60/40 ch3oh/h2o, both actives in solvent: Methomyl, with oxamyl, 2:1 wt., 60/40 CH3OH/H2O) was 552 mg/mL (≈ 3400 mM). It also gave a solubility [5, 9] of 208 mg/mL (≈ 1280 mM), a solubility ([5]; 70/30 ch3oh/h2o, both actives in solvent: Methomyl, with oxamyl, 2:1 wt., 70/30 CH3OH/H2O) of 342 mg/mL (≈ 2110 mM) and a solubility [5, 10] of 263 mg/mL (≈ 1620 mM). For the same compound, the solubility ([5]; 80/20 ch3oh/h2o, both actives in solvent: Methomyl, with oxamyl, 2:1 wt., 80/20 CH3OH/H2O) was 598 mg/mL (≈ 3690 mM), the solubility [5, 11] was 299 mg/mL (≈ 1840 mM) and the solubility ([5]; 90/10 ch3oh/h2o, both actives in solvent: Methomyl, with oxamyl, 2:1 wt., 90/10 CH3OH/H2O) was 737 mg/mL (≈ 4540 mM). For the same compound, the “Solubility, Methomyl alone in solvent” value ([5]; alone, 100/0 CH3OH/H2O) was 30.7 gms/100 gms, the “Solubility change when dissolved in combination” value ([5]; methanol:water solvent systems, 2:1 wt. ratio dissolved initially) was “increased” and the “Solubility, both actives” value ([5]; with oxamyl, 2:1 wt., 100/0 CH3OH/H2O) was 82.5 gms/100 gms.
